Assay results reported in ChEMBL document CHEMBL4834472 (J Med Chem, 2021).
pIC50: −log10 of the molar value. Calls of active or inactive are those of the source. The calls are words filed in the database; no cut-off is given here.

Assays:
[1] = biological target: Cyclin-dependent kinase 4/cyclin D1 (Homo sapiens, UniProt P11802); experiment: Inhibition of CDK4/cyclin D1 (unknown origin) in presence of [32P]gammaATP by image analyser; assay type: protein-complex assay
CDK2/Cyclin A1 = CDK2/Cyclin A1 (Homo sapiens, UniProt P24941); assay type: protein-complex assay
Description: Inhibition of CDK2/Cyclin A1 (unknown origin) at 1 uM using histone H1 as substrate preincubated for 20 mins followed by 33P-ATP addition and measured after 2 hrs by filter binding method

MV4-11 [2] = experiment: Induction of apoptosis in human MV4-11 cells assessed as caspase 3 activation using fluorescent substrate Ac-DEVD-AMC at 100 nM incubated for 24 hrs by Western blot analysis; assay type: functional, cell-based
MOLM-14 [3] = experiment: Antiproliferative activity against human MOLM-14 cells assessed as cell death measured after 72 hrs by resazurin dye based assay; assay type: functional; details: MOLM-14, 72 h
[4] = biological target: Cyclin-dependent kinase 1/cyclin B1 (Homo sapiens, UniProt P06493); experiment: Inhibition of CDK1/cyclin B1 (unknown origin) in presence of [32P]gammaATP by image analyser; assay type: protein-complex assay
MV4-11 [5] = experiment: Induction of apoptosis in human MV4-11 cells assessed as effect on Bcl2 level at 100 nM incubated for 24 hrs by Western blot analysis; assay type: functional, cell-based
[6] = biological target: Receptor-type tyrosine-protein kinase FLT3 (Homo sapiens) (UniProt P36888); experiment: Inhibition of FLT3 autophosphorylation in human MV4-11 cells at 20 to 100 nM incubated for 1 hrs by Western blot analysis; assay type: cell-based; details: dose 20-100 nM
MOLM-14 [7] = experiment: Antiproliferative activity against human MOLM-14 cells harboring F691L mutant assessed as cell death measured after 72 hrs by resazurin dye based assay; assay type: functional; details: MOLM-14, 72 h
SEM cells = experiment: Antiproliferative activity against human SEM cells assessed as cell death measured after 72 hrs by resazurin dye based assay; assay type: functional
K562 = experiment: cells; details: Homo sapiens, K562, 72 h
Description: Antiproliferative activity against human K562 cells assessed as cell death measured after 72 hrs by resazurin dye based assay

BaF3 [8] = experiment: Antiproliferative activity against mouse BaF3 cells harboring FLt3 ITD mutant assessed as cell death measured after 72 hrs by resazurin dye based assay; assay type: functional; details: BaF3, 72 h
MOLM-14 [9] = experiment: Antiproliferative activity against human MOLM-14 cells harboring D835Y mutant assessed as cell death measured after 72 hrs by resazurin dye based assay; assay type: functional; details: MOLM-14, 72 h
[10] = biological target: T1, Receptor-type tyrosine-protein kinase FLT3 (Homo sapiens, UniProt P36888); experiment: Inhibition of wild type FLT3 (unknown origin) using AGLT peptide substrate in presence of [32P]gammaATP by image analyser
T1 sequence (P36888 whole entry): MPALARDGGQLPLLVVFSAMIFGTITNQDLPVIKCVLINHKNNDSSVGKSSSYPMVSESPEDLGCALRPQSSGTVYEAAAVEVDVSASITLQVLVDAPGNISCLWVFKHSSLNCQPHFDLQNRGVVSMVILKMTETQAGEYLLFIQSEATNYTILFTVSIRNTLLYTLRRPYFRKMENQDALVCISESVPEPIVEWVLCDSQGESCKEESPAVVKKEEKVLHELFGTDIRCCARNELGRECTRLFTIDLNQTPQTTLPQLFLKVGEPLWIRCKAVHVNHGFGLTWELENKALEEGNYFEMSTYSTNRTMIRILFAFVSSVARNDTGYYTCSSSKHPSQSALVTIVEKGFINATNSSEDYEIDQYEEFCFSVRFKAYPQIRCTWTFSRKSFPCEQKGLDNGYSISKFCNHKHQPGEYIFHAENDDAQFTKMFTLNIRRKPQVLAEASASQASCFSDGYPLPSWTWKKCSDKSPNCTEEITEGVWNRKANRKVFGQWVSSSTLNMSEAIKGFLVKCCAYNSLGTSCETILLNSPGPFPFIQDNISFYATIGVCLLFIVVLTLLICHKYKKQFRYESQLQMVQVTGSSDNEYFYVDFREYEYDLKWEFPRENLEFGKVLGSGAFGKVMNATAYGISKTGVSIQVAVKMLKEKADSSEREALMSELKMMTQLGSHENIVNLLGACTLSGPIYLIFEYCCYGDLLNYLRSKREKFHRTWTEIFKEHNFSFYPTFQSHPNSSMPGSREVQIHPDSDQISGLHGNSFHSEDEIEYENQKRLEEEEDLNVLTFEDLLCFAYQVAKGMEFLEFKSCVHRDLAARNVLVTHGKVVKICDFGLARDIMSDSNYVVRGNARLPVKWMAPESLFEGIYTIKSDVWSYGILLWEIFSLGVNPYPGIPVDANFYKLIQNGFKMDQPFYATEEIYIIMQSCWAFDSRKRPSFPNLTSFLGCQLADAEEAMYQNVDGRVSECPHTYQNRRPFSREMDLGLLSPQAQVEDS

BaF3 [11] = experiment: Antiproliferative activity against mouse BaF3 cells assessed as cell death measured after 72 hrs by resazurin dye based assay; assay type: functional; details: BaF3, 72 h
MV4-11 [12] = experiment: cells; details: Homo sapiens, MV4-11, 72 h
Description: Antiproliferative activity against human MV4-11 cells assessed as cell death measured after 72 hrs by resazurin dye based assay

MV4-11 [13] = experiment: Induction of apoptosis in human MV4-11 cells assessed as caspase 7 activation using fluorescent substrate Ac-DEVD-AMC at 100 nM incubated for 24 hrs by Western blot analysis; assay type: functional, cell-based
[14] = biological target: Cyclin-dependent kinase 2/cyclin E1 (Homo sapiens, UniProt P24941); experiment: Inhibition of CDK2/cyclin E1 (unknown origin) in presence of [32P]gammaATP by image analyser; assay type: protein-complex assay
CCRF-CEM = experiment: Antiproliferative activity against human CCRF-CEM cells assessed as cell death measured after 72 hrs by resazurin dye based assay; assay type: functional
[15] = biological target: Receptor-type tyrosine-protein kinase FLT3 (Homo sapiens) (UniProt P36888); experiment: Inhibition of FLT3 in human MV4-11 cells assessed as STAT5 phosphorylation at Y694 at 20 to 100 nM incubated for 1 hrs by Western blot analysis; assay type: cell-based; details: dose 20-100 nM
THP-1 = experiment: Antiproliferative activity against human THP-1 cells assessed as cell death measured after 72 hrs by resazurin dye based assay; assay type: functional; details: THP-1, 72 h
CDK9/cyclin T1 = CDK9/cyclin T1 (Homo sapiens, UniProt P50750); experiment: Inhibition of CDK9/cyclin T1 (unknown origin) in presence of [32P]gammaATP by image analyser; assay type: protein-complex assay
[16] = biological target: Receptor-type tyrosine-protein kinase FLT3 (Homo sapiens) (UniProt P36888); experiment: Inhibition of FLT3 in human MV4-11 cells assessed as ERK1/2 phosphorylation at 20 to 100 nM incubated for 1 hrs by Western blot analysis; assay type: cell-based; details: dose 20-100 nM
CDK2/Cyclin A2 = CDK2/Cyclin A2 (Homo sapiens, UniProt P24941); experiment: Inhibition of CDK2/cyclin A2 (unknown origin) in presence of [32P]gammaATP by image analyser; assay type: protein-complex assay
U-937 = experiment: Antiproliferative activity against human U-937 cells assessed as cell death measured after 72 hrs by resazurin dye based assay; assay type: functional; details: U-937, 72 h
MV4-11 [17] = experiment: Induction of apoptosis in human MV4-11 cells assessed as decrease in MCL1 level at 100 nM incubated for 24 hrs by Western blot analysis; assay type: functional, cell-based
MV4-11 [18] = experiment: Induction of apoptosis in human MV4-11 cells assessed as increase in cleaved PARP1 level at 100 nM incubated for 24 hrs by Western blot analysis; assay type: functional, cell-based
MOLM-13 = experiment: Antiproliferative activity against human MOLM-13 cells assessed as cell death measured after 72 hrs by resazurin dye based assay; assay type: functional; details: MOLM-13, 72 h
[19] = biological target: Receptor-type tyrosine-protein kinase FLT3 (Homo sapiens, UniProt P36888, ITD)

Cyclin-dependent kinase 1/cyclin B1, sequence (P06493 whole entry): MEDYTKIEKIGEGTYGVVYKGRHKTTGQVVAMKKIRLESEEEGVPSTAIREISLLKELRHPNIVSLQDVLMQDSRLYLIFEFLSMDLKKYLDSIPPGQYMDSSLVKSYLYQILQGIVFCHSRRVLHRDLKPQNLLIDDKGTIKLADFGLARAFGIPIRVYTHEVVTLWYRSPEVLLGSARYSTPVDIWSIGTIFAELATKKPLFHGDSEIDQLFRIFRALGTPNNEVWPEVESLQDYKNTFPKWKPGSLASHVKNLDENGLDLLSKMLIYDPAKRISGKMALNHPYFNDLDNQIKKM
Cyclin-dependent kinase 1/cyclin B1, sequence (P14635 whole entry, further chain): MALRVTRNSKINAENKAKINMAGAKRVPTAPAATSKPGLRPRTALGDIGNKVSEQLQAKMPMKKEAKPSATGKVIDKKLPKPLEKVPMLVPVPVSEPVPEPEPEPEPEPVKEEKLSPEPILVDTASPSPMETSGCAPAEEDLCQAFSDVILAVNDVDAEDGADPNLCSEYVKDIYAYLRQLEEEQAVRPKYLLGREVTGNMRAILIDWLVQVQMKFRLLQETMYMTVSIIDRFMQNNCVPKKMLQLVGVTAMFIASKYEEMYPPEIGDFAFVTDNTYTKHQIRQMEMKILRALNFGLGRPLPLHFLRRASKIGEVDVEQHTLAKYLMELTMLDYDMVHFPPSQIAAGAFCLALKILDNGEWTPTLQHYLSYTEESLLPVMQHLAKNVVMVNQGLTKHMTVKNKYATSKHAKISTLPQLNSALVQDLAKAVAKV
Cyclin-dependent kinase 4/cyclin D1, sequence (P11802 whole entry): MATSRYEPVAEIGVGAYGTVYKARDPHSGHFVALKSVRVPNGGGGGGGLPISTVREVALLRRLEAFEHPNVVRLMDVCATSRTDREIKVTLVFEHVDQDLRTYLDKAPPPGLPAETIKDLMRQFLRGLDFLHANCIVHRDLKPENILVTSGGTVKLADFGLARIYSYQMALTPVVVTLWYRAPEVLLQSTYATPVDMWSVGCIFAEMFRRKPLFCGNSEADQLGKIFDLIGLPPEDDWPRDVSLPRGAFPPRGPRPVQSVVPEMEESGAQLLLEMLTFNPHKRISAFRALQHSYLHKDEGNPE
Cyclin-dependent kinase 4/cyclin D1, sequence (P24385 whole entry, further chain): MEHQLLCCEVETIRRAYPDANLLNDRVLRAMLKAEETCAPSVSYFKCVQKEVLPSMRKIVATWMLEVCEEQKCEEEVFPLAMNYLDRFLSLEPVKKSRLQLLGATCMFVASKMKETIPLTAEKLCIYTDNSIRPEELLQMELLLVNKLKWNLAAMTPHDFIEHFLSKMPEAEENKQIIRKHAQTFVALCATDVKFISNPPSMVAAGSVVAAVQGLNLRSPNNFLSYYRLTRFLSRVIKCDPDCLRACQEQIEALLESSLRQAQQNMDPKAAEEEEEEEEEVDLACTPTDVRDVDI
CDK9/cyclin T1, sequence (O60563 whole entry): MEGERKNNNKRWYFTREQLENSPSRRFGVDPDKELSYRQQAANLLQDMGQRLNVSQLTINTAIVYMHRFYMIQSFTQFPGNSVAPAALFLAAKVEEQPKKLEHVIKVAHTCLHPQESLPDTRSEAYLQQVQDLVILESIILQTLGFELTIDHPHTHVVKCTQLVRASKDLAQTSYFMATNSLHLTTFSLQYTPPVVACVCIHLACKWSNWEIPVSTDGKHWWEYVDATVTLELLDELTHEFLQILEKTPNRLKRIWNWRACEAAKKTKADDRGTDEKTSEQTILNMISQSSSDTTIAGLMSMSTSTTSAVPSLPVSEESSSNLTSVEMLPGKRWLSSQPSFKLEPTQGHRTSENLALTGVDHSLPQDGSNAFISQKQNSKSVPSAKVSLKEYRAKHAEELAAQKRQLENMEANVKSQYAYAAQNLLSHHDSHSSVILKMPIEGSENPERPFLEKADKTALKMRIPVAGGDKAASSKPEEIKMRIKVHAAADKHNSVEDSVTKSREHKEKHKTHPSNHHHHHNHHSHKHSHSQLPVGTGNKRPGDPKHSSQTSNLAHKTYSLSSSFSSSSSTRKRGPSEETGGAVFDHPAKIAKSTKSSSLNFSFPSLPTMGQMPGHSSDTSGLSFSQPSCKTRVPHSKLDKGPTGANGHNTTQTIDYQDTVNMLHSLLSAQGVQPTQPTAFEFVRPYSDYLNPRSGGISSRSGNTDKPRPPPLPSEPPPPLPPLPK
CDK9/cyclin T1, sequence (P50750 whole entry): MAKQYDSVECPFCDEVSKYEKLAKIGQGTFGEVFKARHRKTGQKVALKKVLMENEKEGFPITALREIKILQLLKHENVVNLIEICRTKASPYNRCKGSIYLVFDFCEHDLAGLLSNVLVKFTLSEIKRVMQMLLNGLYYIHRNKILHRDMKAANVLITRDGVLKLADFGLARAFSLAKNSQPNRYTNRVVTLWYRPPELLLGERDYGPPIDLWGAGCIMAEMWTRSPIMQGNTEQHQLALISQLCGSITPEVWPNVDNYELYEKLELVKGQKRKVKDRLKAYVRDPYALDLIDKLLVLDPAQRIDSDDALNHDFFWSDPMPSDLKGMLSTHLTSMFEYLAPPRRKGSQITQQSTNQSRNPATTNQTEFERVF

Row | pIC50 [1] | pIC50 (CDK2/Cyclin A1) | pIC50 [4] | inhibition [6] | pIC50 (K562) | pIC50 [10] | pIC50 (MV4-11 [12]) | pIC50 [14] | inhibition [15] | Structure (SMILES) | Activity (MV4-11 [2]) | pIC50 (MOLM-14 [3]) | Activity (MV4-11 [5]) | pIC50 (MOLM-14 [7]) | pIC50 (SEM cells) | pIC50 (BaF3 [8]) | pIC50 (MOLM-14 [9]) | pIC50 (BaF3 [11]) | Activity (MV4-11 [13]) | pIC50 (CCRF-CEM) | pIC50 (THP-1) | other results
1 | < 6.00 | 7.31 | 7.14 | Active | 5.12 | 7.55 | 7.31 | 7.51 | Active | Fc1cc2[nH]ncc2c2c3c(c(-c4c[nH]nc4C(F)(F)F)nc12)C1CCC3C1 (centres undefined) | Active | 7.62 | Active | 7.19 | 6.82 | 7.46 | 7.89 | 5.24 | Active | 5.09 | 5.50 | pIC50 (CDK9/cyclin T1): 6.01; inhibition [16]: inactive; pIC50 (CDK2/Cyclin A2): 7.31; pIC50 (U-937): 5.65; Activity (MV4-11 [17]): Active; Activity (MV4-11 [18]): Active; pIC50 (MOLM-13): 8.22; pIC50 [19]: 7.80
2 | < 6.00 | 6.85 | 6.69 | Active | 5.01 | 7.49 | 7.52 | 6.99 | Active | OCc1n[nH]c2ccc3nc(-c4c[nH]nc4C(F)(F)F)c4c(c3c12)CCCC4 | Active | 7.44 | Active | 7.04 | 6.36 | 6.91 | 7.80 | 4.79 | Active | 5.28 | 4.77 | pIC50 (CDK9/cyclin T1): < 6.00; inhibition [16]: inactive; pIC50 (CDK2/Cyclin A2): 6.85; pIC50 (U-937): 5.32; Activity (MV4-11 [17]): Active; Activity (MV4-11 [18]): Active; pIC50 (MOLM-13): 7.74; pIC50 [19]: 8.52
3 | < 6.00 | 7.41 | 7.28 | Active | 5.14 | 7.51 | 8.15 | 7.48 | Active | Fc1cc2[nH]ncc2c2c3c(c(-c4c[nH]nc4C(F)(F)F)nc12)CCCC3 | Active | 7.55 | Active | 7.38 | 6.74 | 7.38 | 7.77 | 5.41 | Active | 5.43 | 5.46 | pIC50 (CDK9/cyclin T1): 6.27; inhibition [16]: inactive; pIC50 (CDK2/Cyclin A2): 7.41; pIC50 (U-937): 5.65; Activity (MV4-11 [17]): Active; Activity (MV4-11 [18]): Active; pIC50 (MOLM-13): 8.22; pIC50 [19]: 7.92
